Earlier results in article PMC9549030, “Structural basis for specific inhibition of the deubiquitinase UCHL1” (Nature Communications, 2022).

Assays:
Prolyl oligopeptidase = target: Prolyl oligopeptidase; design: method as in SI-Ref-8; details: ref SI-Ref-8; cited from earlier work
Caspase 1 = target: Caspase 1; design: method as in SI-Ref-5; details: ref SI-Ref-5; cited from earlier work
Cathepsin K = details: ref SI-Ref-7; cited from earlier work

N#C[C@@H]1CCCN1C(=O)[C@@H]1CCCN1C(=O)CCCc1ccccc1 [KYP-2047]
IC50 (Prolyl oligopeptidase): 3.9 nM

CC(C)(C)[C@H](NC(=O)c1ccc(N)c(Cl)c1)C(=O)N1CCC[C@H]1C(=O)N[C@H](C#N)CC(=O)O [ML132]
IC50 (Caspase 1): 0.023 nM

CC(C)(F)C[C@H](N[C@@H](c1ccc(-c2ccc(S(C)(=O)=O)cc2)cc1)C(F)(F)F)C(=O)NC1(C#N)CC1 [Odanacatib]
IC50 (Cathepsin K): 0.2 nM
